This note sets out measurements from PubChem BioAssay (NCI).

Some test systems named below: OVCAR-3 ovarian; KM12 colon; SR leukemia; HOP-62 NSCLC; K-562 leukemia; DU-145 prostate; HOP-92 NSCLC; SK-MEL-5 melanoma; NCI/ADR-RES ovarian; OVCAR-8 ovarian.
Holding throughout (test): inhibition of tumour cell growth, NCI panel, 48 h

Structures are written as SMILES. Values joined by “and” are separate entries in the source; they are usually repeats but may differ in a detail not shown here. Identical values can stand only once.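 A five-concentration, 48-hour dose response in 96-well plates underlies each endpoint, interpolated linearly between surrounding concentrations. The concentration for 50% growth inhibition is given as GI50. TGI: total growth inhibition.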

For the molecule `COc1ccc(C2c3ccc4ccccc4c3Oc3ncn(CCCn4ccnc4)c(=N)c32)cc1OC` (centres undefined), the GI50 in the assay on OVCAR-3 ovarian was 3.44 µM; in the assay with KM12 colon, 3.74 µM; in the assay with SR leukemia, 1.57 µM; in the assay with HOP-62 NSCLC, 5.03 µM; in the assay on K-562 leukemia, 2.07 µM; in the assay on DU-145 prostate, 5.49 µM. Further, the GI50 in the assay on HOP-92 NSCLC is 1.3 µM; in the assay on SK-MEL-5 melanoma it was 1.66 µM; in the assay on NCI/ADR-RES ovarian, 3.96 µM; in the assay on OVCAR-8 ovarian it was 3.16 µM. The TGI in the assay with OVCAR-3 ovarian was 11 µM; in the assay with KM12 colon it was 13.9 µM; in the assay on SR leukemia, 4.15 µM; with HOP-62 NSCLC, 18.4 µM; in the assay with K-562 leukemia, 4.54 µM; in the assay with DU-145 prostate, 18.2 µM. The TGI with HOP-92 NSCLC stood at 6.64 µM; with SK-MEL-5 melanoma it was 3.11 µM; in the assay on NCI/ADR-RES ovarian, 17.4 µM; with OVCAR-8 ovarian it was 11.6 µM.
With `CCOc1ccccc1/C=N\N=C(N/N=C/c1ccccc1OCC)N/N=C/c1ccccc1OCC`, the GI50 is 0.532 µM with OVCAR-3 ovarian; 1.72 µM in the assay on KM12 colon; 3.23 µM with SR leukemia; 1.85 µM with HOP-62 NSCLC; 3.76 µM in the assay with K-562 leukemia; 2.45 µM with DU-145 prostate. Moreover, the GI50 in the assay with HOP-92 NSCLC is 1.24 µM; in the assay with SK-MEL-5 melanoma, 1.69 µM; in the assay with NCI/ADR-RES ovarian, 1.7 µM; in the assay with OVCAR-8 ovarian it was 3.01 µM. For the same molecule, the TGI is 6.79 µM in the assay on OVCAR-3 ovarian; > 100 µM with KM12 colon; > 100 µM with SR leukemia; > 100 µM with HOP-62 NSCLC; > 100 µM in the assay on K-562 leukemia; > 100 µM in the assay with DU-145 prostate. Further, the TGI in the assay with HOP-92 NSCLC was 5.63 µM; in the assay on SK-MEL-5 melanoma, 3.71 µM; in the assay with NCI/ADR-RES ovarian, > 100 µM; with OVCAR-8 ovarian it was > 100 µM.
For the molecule `CCOC(=O)c1c(NN2CCN(CC(F)(F)F)CC2)oc(/C=C2\C=Nc3ncccc32)c1O`, the GI50 in the assay on OVCAR-3 ovarian was 4.06 µM; in the assay with KM12 colon, 3.45 µM; with SR leukemia, 0.689 µM; with HOP-62 NSCLC, 5.03 µM; in the assay with K-562 leukemia, 2.14 µM; with DU-145 prostate, 4.75 µM. The GI50 in the assay on HOP-92 NSCLC is 12.9 µM; with SK-MEL-5 melanoma, 2.55 µM; in the assay with NCI/ADR-RES ovarian it was 19.3 µM; in the assay with OVCAR-8 ovarian, 4.14 µM. Moreover, the TGI in the assay on OVCAR-3 ovarian is 19.4 µM; in the assay with KM12 colon, 15.3 µM; in the assay with SR leukemia, 3.81 µM; in the assay on HOP-62 NSCLC it was 21.8 µM; with K-562 leukemia, > 100 µM; in the assay on DU-145 prostate it was 23.7 µM. Moreover, the TGI with HOP-92 NSCLC was 40.9 µM; in the assay on SK-MEL-5 melanoma it was 10.6 µM; with NCI/ADR-RES ovarian it was 57.8 µM; with OVCAR-8 ovarian it was 20.6 µM.
`CCCN(CCC)c1ccc(/C=N/NC(=O)c2cccnc2)c(C)c1`: the GI50 was 13 µM in the assay on OVCAR-3 ovarian; 11.9 µM in the assay on KM12 colon; 8.15 µM in the assay on SR leukemia; 18.2 µM in the assay with HOP-62 NSCLC; 10.5 µM with K-562 leukemia; 16.4 µM with DU-145 prostate. Besides, the GI50 with HOP-92 NSCLC was 11.3 µM; with SK-MEL-5 melanoma, 12.8 µM; in the assay with NCI/ADR-RES ovarian, 15.2 µM; with OVCAR-8 ovarian it was 18 µM. Further, the TGI with OVCAR-3 ovarian stood at 27.8 µM; in the assay on KM12 colon, 24.5 µM; in the assay with SR leukemia, 41.7 µM; in the assay on HOP-62 NSCLC, 43.3 µM; in the assay on K-562 leukemia, 54.6 µM; in the assay on DU-145 prostate, 43.9 µM. Further, the TGI in the assay on HOP-92 NSCLC came out at 26.2 µM; in the assay with SK-MEL-5 melanoma, 25.4 µM; with NCI/ADR-RES ovarian, 51.5 µM; with OVCAR-8 ovarian it was 44.1 µM.
Turning to `O=c1[nH]c(-c2ccc(Cl)c(Cl)c2)cn1-c1ccc(Cl)cc1`, the GI50 in the assay on OVCAR-3 ovarian is 27.7 µM; in the assay with KM12 colon, 71.3 µM; in the assay on SR leukemia, 4.64 µM; in the assay on HOP-62 NSCLC it was 16.3 µM; in the assay with K-562 leukemia, 21.5 µM; in the assay on DU-145 prostate it was 29.1 µM. The GI50 in the assay with HOP-92 NSCLC was 15.9 µM; in the assay on SK-MEL-5 melanoma, 42.2 µM; with NCI/ADR-RES ovarian, 27.7 µM; in the assay with OVCAR-8 ovarian, 34.7 µM. In addition, the TGI with OVCAR-3 ovarian is 59 µM; in the assay on KM12 colon, > 100 µM; with SR leukemia it was 16.2 µM; with HOP-62 NSCLC, 31.9 µM; with K-562 leukemia, 46.9 µM; in the assay on DU-145 prostate, > 100 µM. Further, the TGI in the assay with HOP-92 NSCLC is 46.3 µM; in the assay with SK-MEL-5 melanoma, > 100 µM; in the assay with NCI/ADR-RES ovarian it was > 100 µM; in the assay on OVCAR-8 ovarian, > 100 µM.
On to `CCOc1ccc(-c2nc3ccc(-c4nc5ccc(N6CCN(C)CC6)cc5[nH]4)cc3[nH]2)cc1`, for which the GI50 was 0.125 µM in the assay on OVCAR-3 ovarian; 0.999 µM in the assay with KM12 colon; 0.311 µM in the assay with SR leukemia; 0.456 µM with HOP-62 NSCLC; 0.696 µM in the assay with K-562 leukemia; 0.402 µM in the assay on DU-145 prostate. The GI50 is 0.213 µM and 0.0913 µM in the assay on HOP-92 NSCLC; 0.0761 µM in the assay on SK-MEL-5 melanoma; 5.4 µM in the assay on NCI/ADR-RES ovarian; 0.162 µM and 0.315 µM in the assay with OVCAR-8 ovarian. The TGI with OVCAR-3 ovarian was 0.393 µM; with KM12 colon, 2.15 µM; in the assay with SR leukemia it was 2.67 µM; in the assay on HOP-62 NSCLC, 1.6 µM; in the assay with DU-145 prostate, 1.57 µM; in the assay on HOP-92 NSCLC, 2.27 µM and 1.52 µM. Further, the TGI with SK-MEL-5 melanoma was 1.42 µM; in the assay with NCI/ADR-RES ovarian it was > 100 µM; in the assay on OVCAR-8 ovarian, 0.54 µM and 1.25 µM.
Turning to `Clc1cc(Br)ccc1-c1ccc(CNCC2CCNCC2)o1`, the GI50 with OVCAR-3 ovarian is 1.75 µM; with KM12 colon, 1.71 µM; with SR leukemia, 0.444 µM; in the assay with HOP-62 NSCLC it was 1.84 µM; with K-562 leukemia, 1.45 µM; in the assay with DU-145 prostate, 1.75 µM. The GI50 in the assay on HOP-92 NSCLC is 1.4 µM; in the assay with SK-MEL-5 melanoma, 1.76 µM; in the assay on NCI/ADR-RES ovarian it was 3.13 µM; with OVCAR-8 ovarian, 2.19 µM. In addition, the TGI in the assay with OVCAR-3 ovarian amounted to 3.27 µM; with KM12 colon, 3.22 µM; in the assay on SR leukemia, 2.65 µM; in the assay with HOP-62 NSCLC, 3.43 µM; with K-562 leukemia it was 3.46 µM; in the assay on DU-145 prostate, 3.21 µM. Moreover, the TGI in the assay with HOP-92 NSCLC stood at 4.9 µM; in the assay on SK-MEL-5 melanoma it was 3.2 µM; in the assay on NCI/ADR-RES ovarian, 9.69 µM; in the assay on OVCAR-8 ovarian it was 5.15 µM.
